Patent US20070213359A1 (ACADIA Pharmaceuticals Inc., priority 2005, published 2007)
Read-outs that look alike come from different tables or passages of the source.

Target: Ghrelin receptor (Homo sapiens, UniProt Q92847)
Assay: Receptor Selection and Amplification Technology (R-SAT) assay
Format: cell-based
Design: expressed in transfected cells; host or cells: NIH3T3
Settings: for IC50: negative logarithm of ligand concentration causing 50% inhibition of constitutive receptor response, transfected NIH3T3 cells, '—' not defined (nd used separately), read-out: RSAT pIC50 (converted); for Emax: read-out: RSAT Eff(%)
[1] = percent inhibition at saturating ligand, normalized to reference ligand Substance P analog = 100%

Ghrelin receptor, sequence (Q92847 whole entry): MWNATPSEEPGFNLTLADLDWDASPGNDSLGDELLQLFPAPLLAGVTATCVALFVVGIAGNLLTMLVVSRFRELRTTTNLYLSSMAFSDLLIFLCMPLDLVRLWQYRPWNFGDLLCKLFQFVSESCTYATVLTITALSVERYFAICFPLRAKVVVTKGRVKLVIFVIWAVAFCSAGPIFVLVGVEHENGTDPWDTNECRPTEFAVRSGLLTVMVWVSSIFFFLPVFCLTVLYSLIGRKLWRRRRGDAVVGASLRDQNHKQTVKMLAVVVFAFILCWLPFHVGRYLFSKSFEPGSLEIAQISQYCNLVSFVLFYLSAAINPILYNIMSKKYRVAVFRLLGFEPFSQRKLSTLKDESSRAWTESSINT

Row | Compound | IC50 | Emax [1] | RSAT Eff(%) [1] | Emax
1 | CC(=O)c1cn(CCCN2C3CCC2CC(CCc2ccccc2)C3)c2c(C)cccc12 (stereo not shown) | 6.31 nM | 105% |  | 
2 | CC(=O)c1cn(CCCN2C3CCC2CC(CCc2ccccc2)C3)c2c(Cl)cccc12 (stereo not shown) | 12.6 nM | 109% |  | 
3 | CC(=O)c1cn(CCCN2C3CCC2CC(Oc2ccc(F)cc2)C3)c2c(Br)cccc12 (stereo not shown) | 15.8 nM | 81% |  | 
4 | COc1cccc2c(C(=O)NCc3cccc(C)c3)cn(CCCN3C4CCC3CC(Oc3ccc(F)cc3)C4)c12 (stereo not shown) | 15.8 nM |  | 112% | 
5 | CC(=O)c1cn(CCCN2C3CCC2CC(Oc2ccc(F)cc2)C3)c2c(C)cccc12 (stereo not shown) | 20 nM | 98% |  | 
6 | CC(=O)c1cn(CCCN2CCC(c3nc(-c4ccncc4)no3)CC2)c2c(C)cccc12 | 31.6 nM | 137% |  | 
7 | COc1cccc2c(C(=O)NCc3cccc(C)c3)cn(CCCN3CCC(Oc4cccc(Cl)c4)CC3)c12 | 31.6 nM |  |  | 93%
8 | COc1cccc2c(C(=O)NCC(C)C)cn(CCCN3CCC(Oc4cccc(Cl)c4)CC3)c12 | 31.6 nM |  |  | 71%
9 | CC(=O)c1cn(CCCN2CCC(c3nc(-c4cccnc4)no3)CC2)c2c(Br)cccc12 | 39.8 nM | 119% |  | 
10 | CC(=O)c1cn(CCCNCCOc2ccccc2)c2c(C)cccc12 | 39.8 nM | 100% |  | 
11 | CC(=O)c1cn(CCCN2C3CCC2CC(CCc2ccc(Cl)cc2)C3)c2c(Br)cccc12 (stereo not shown) | 39.8 nM | 106% |  | 
12 | COc1cccc2c(C(C)=O)cn(CC(C)CN3C4CCC3CC(CCc3ccccc3)C4)c12 (stereo not shown) | 50.1 nM |  |  | 120%
13 | CC(=O)c1cn(CCCN2CCN(c3ncc(C(F)(F)F)cc3Cl)CC2)c2c(C#N)cccc12 | 79.4 nM | 106% |  | 
14 | COc1cccc2c(C(=O)NCC(C)C)cn(CCCN3C4CCC3CC(Oc3ccc(F)cc3)C4)c12 (stereo not shown) | 79.4 nM |  | 147% | 
15 | CC(=O)c1cn(CCCN2C3CCC2CC(CCc2ccc(Cl)cc2)C3)c2c(C)cccc12 (stereo not shown) | 100 nM |  |  | 50%
16 | CC(=O)c1cn(CCCNCCOc2ccccc2)c2c(Cl)cccc12 | 100 nM | 84% |  | 
17 | CC(=O)c1cn(CCCN2C3CCC2CC(Oc2ccc(F)cc2)C3)c2c(Cl)cccc12 (stereo not shown) | 100 nM | 87% |  | 
18 | CCc1cccc2c(C(C)=O)cn(CCCN3C4CCC3CC(Oc3ccccc3Cl)C4)c12 (stereo not shown) | 100 nM | 101% |  | 
19 | CCCCC(=O)c1cn(CCCN2CCC(Oc3ccc(F)cc3)CC2)c2ccc(OC)cc12 | 100 nM |  |  | 91%
20 | CCCOC1CCN(CCCn2cc(C(=O)CC(C)C)c3ccccc32)CC1 | 126 nM | 81% |  | 
21 | CCCCC(=O)c1cn(CCCN2C3CCC2CC(Oc2ccc(Cl)cc2)C3)c2ccc(OC)cc12 (stereo not shown) | 126 nM | 110% |  | 
22 | COc1cccc2c(C(C)=O)cn(CCCN3CCC(O)(Cc4ccccc4)CC3)c12 | 126 nM | 106% |  | 
23 | CCCCC(=O)c1cn(CCCN2CCC(OCCC)CC2)c2ccc(OC)cc12 | 126 nM | 114% |  | 
24 | CCCCC(=O)c1cn(CCCN2CCC3c4cc(OC)ccc4NC3C2)c2ccc(OC)cc12 (stereo not shown) | 126 nM | 91% |  | 
25 | COc1cccc2c(C(=O)NCC(C)C)cn(CCCN3CCC(c4nc(-c5ccncc5)no4)CC3)c12 | 158 nM |  | 93% | 

Row | Compound | IC50 | Emax [1] | RSAT Eff(%) [1] | Emax
26 | COc1ccc2c(C(C)=O)cn(CCCN3CCC(Oc4ccc(F)cc4)CC3)c2c1 | 158 nM | 70% |  | 
27 | CCCCC(=O)c1cn(CCCN2CCC(CCCC)CC2)c2ccc(OC)cc12 | 158 nM | 104% |  | 
28 | CCC(=O)c1cn(CCCN2CCC(c3nc4ccccc4s3)CC2)c2ccccc12 | 158 nM | 104% |  | 
29 | COc1cccc2c(C(C)=O)cn(CC(C)CN3CCN(c4ncc(C(F)(F)F)cc4Cl)CC3)c12 (stereo not shown) | 158 nM | 95% |  | 
30 | CCc1cccc2c(C(C)=O)cn(CCCNC3Cc4ccccc4C3)c12 | 158 nM | 98% |  | 
31 | CC(C)CC(=O)c1cn(CCCN2C3CCC2CC(OC2=CC=C(Cl)CC2)C3)c2ccccc12 (stereo not shown) | 158 nM |  |  | 137%
32 | CC(=O)c1cn(CCCN2CCC(Oc3ccc(F)cc3)CC2)c2ccc(Br)cc12 | 158 nM | 75% |  | 
33 | CC(C)CC(=O)c1cn(CCCN2C3CCC2CC(OCC2CC2)C3)c2ccccc12 (stereo not shown) | 158 nM | 129% |  | 
34 | COc1ccc2c(C(C)=O)cn(CCCN3C4CCC3CC(OCC3CC3)C4)c2c1 (stereo not shown) | 158 nM | 93% |  | 
35 | COc1cccc2c(C(C)=O)cn(CC(C)CN3CCN(Cc4ccc(Cl)cc4Cl)CC3)c12 (stereo not shown) | 200 nM | 78% |  | 
36 | CC(=O)c1cn(CCCN2CCC(c3nc(-c4cccnc4)no3)CC2)c2c(C)cccc12 | 200 nM | 103% |  | 
37 | CC(=O)c1cn(CC(O)CN2CCC(c3nc4ccccc4s3)CC2)c2ccccc12 (stereo not shown) | 200 nM | 58% |  | 
38 | CCCCC(=O)c1cn(CCCN2C3CCC2CC(OCC2CC2)C3)c2ccc(OC)cc12 (stereo not shown) | 200 nM |  |  | 132%
39 | CCc1cccc2c(C(C)=O)cn(CCCN3C4CCC3CC(Oc3ccc(F)cc3)C4)c12 (stereo not shown) | 200 nM | 98% |  | 
40 | CC(=O)c1cn(CC(O)CN2CCC(Oc3ccc(F)cc3)CC2)c2ccccc12 (stereo not shown) | 200 nM | 74% |  | 
41 | COc1ccc2c(C(C)=O)cn(CCCN3CCC(Oc4ccccc4Cl)CC3)c2c1 | 251 nM | 88% |  | 
42 | CC(=O)c1cn(CCN2C3CCC2CC(OCC2CC2)C3)c2ccccc12 (stereo not shown) | 251 nM | 54% |  | 
43 | CC(=O)c1cn(CCCN2C3CCC2CC(OCC2CC2)C3)c2ccc(Br)cc12 (stereo not shown) | 251 nM | 102% |  | 
44 | CCCON1CCN(CCCn2cc(C(=O)C(F)(F)F)c3ccccc32)CC1 | 251 nM | 99% |  | 
45 | CCCCC[C@H]1C[C@H]2CC[C@@H](C1)N2CCCn1cc(C(C)=O)c2cccc(C)c21 | 251 nM | 105% |  | 
46 | CC(c1ccccc1)N1CCN(CCCn2cc(C(=O)C(F)(F)F)c3ccccc32)CC1 (stereo not shown) | 251 nM | 92% |  | 
47 | O=C(c1cn(CCCN2C3CCC2CC(Oc2ccc(Cl)cc2)C3)c2ccccc12)C(F)(F)F (stereo not shown) | 251 nM | 97% |  | 
48 | CCCCC(=O)c1cn(CCCN2CCC(Oc3ccccc3Cl)CC2)c2ccc(OC)cc12 | 251 nM | 92% |  | 
49 | CCCOC1CCN(CCCn2cc(C(C)=O)c3ccc(Br)cc32)CC1 | 251 nM | 107% |  | 

More lines, main results first:

Row | IC50 | Emax [1] | RSAT Eff(%) [1] | Compound | Emax
50 | 1 nM | 92% |  | CC(=O)c1cn(CCCN2CCC(Oc3cccc(Cl)c3)CC2)c2c(Br)cccc12 | 
51 | 1.26 nM | 111% |  | CC(=O)c1cn(CCCN2CCCN(Cc3ccccc3Cl)CC2)c2c(C)cccc12 | 
52 | 5.01 nM | 136% |  | CC(=O)c1cn(CCCN2CCCN(Cc3ccc(F)cc3)CC2)c2ncccc12 | 
53 | 5.01 nM | 95% |  | CC(=O)c1cn(CCCN2CCCN(Cc3ccc(F)cc3)CC2)c2c(Br)cccc12 | 
54 | 7.94 nM | 115% |  | CC(=O)c1cn(CCCN2CCCN(Cc3ccc(F)cc3)CC2)c2c(Cl)cccc12 | 
55 | 10 nM | 96% |  | CC(=O)c1cn(CCCN2CCCN(CCc3ccccc3)CC2)c2c(Cl)cccc12 | 
56 | 10 nM | 96% |  | CC(=O)c1cn(CCCN2CCC(Oc3cccc(Cl)c3)CC2)c2c(C)cccc12 | 
57 | 15.8 nM | 109% |  | COc1cccc2c(C#N)cn(CCCN3CCCN(Cc4ccc(F)cc4)CC3)c12 | 
58 | 15.8 nM | 92% |  | CC(=O)c1cn(CCCN2CCN(Cc3ccc(Cl)cc3Cl)CC2)c2c(C#N)cccc12 | 
59 | 20 nM | 87% |  | CCc1cccc2c(C(C)=O)cn(CCCN3CCCC(Cc4ccccc4Cl)C3)c12 (stereo not shown) | 
60 | 31.6 nM | 122% |  | CC(=O)c1cn(CCCN2C3CCC2CC(CCc2ccc(Cl)cc2)C3)c2c(Cl)cccc12 (stereo not shown) | 
61 | 31.6 nM | 103% |  | CCc1cccc2c(C(C)=O)cn(CCCN3CCCN(CCc4ccccc4)CC3)c12 | 
62 | 31.6 nM | 86% |  | CC(=O)c1cn(CCCN2CCN(CCOc3ccccc3)CC2)c2c(C#N)cccc12 | 
63 | 39.8 nM | 110% |  | CCc1cccc2c(C(C)=O)cn(CCCN3CCN(CCOc4ccccc4)CC3)c12 | 
64 | 39.8 nM | 83% |  | CC(=O)c1cn(CCCN2CCCN(CCc3ccccc3)CC2)c2c(C#N)cccc12 | 
65 | 39.8 nM | 121% |  | CCc1cccc2c(C(C)=O)cn(CCCN3CCC(c4nc(-c5ccncc5)no4)CC3)c12 | 
66 | 63.1 nM |  | 84% | COc1cccc2c(C(=O)NCC(C)C)cn(CCCN3CCN(CCOc4ccc(Cl)cc4)CC3)c12 | 
67 | 63.1 nM | 91% |  | CC(=O)c1cn(CCCN2CCN(c3ncc(C(F)(F)F)cc3Cl)CC2)c2ncccc12 | 
68 | 100 nM | 83% |  | O=C(c1cn(CCCN2CCCN(Cc3ccc(F)cc3)CC2)c2ncccc12)C(F)(F)F | 
69 | 126 nM | 78% |  | O=C(c1cn(CCCN2CCN(Cc3ccc(Cl)cc3Cl)CC2)c2ncccc12)C(F)(F)F | 
70 | 158 nM | 90% |  | CCc1cccc2c(C(C)=O)cn(CCCN3CCN(c4ncc(C(F)(F)F)cc4Cl)CC3)c12 | 
71 | 158 nM | 120% |  | CC(=O)c1cn(CCCN2CCN(Cc3ccc(Cl)cc3Cl)CC2)c2c(C)cccc12 | 
72 | 158 nM | 114% |  | COc1cccc2c(C(C)=O)cn(CCCN3CCN(C(C)c4ccccc4)CC3)c12 (stereo not shown) | 
73 | 200 nM | 91% |  | CC(=O)c1cn(CCCN2CCN(CCOc3ccccc3)CC2)c2c(Cl)cccc12 | 
74 | 251 nM | 93% |  | CC(=O)c1cn(CCCN2CCN(C(C)c3ccccc3)CC2)c2cc(Br)ccc12 (stereo not shown) | 
75 | 251 nM | 106% |  | CCc1cccc2c(C(C)=O)cn(CCCN3CCN(Cc4ccc(Cl)cc4Cl)CC3)c12 | 
76 | 251 nM | 97% |  | CC(=O)c1cn(CCCN2CCC(Oc3ccccc3Cl)CC2)c2c(Cl)cccc12 | 
77 | 251 nM | 108% |  | CC(=O)c1cn(CCCN2CCC(c3nc(-c4ccncc4)no3)CC2)c2c(Cl)cccc12 | 
